Test results reported in publication PMC10611619, “[^99mTc]Tc-PentixaTec: development, extensive pre-clinical evaluation, and first human experience” (European Journal of Nuclear Medicine and Molecular Imaging, 2023).
Like-named read-outs stand apart in the source and are kept apart here. Where a SMILES comes first, the peptide text is derived from it. Bridges are numbered along the chain shown (N, C = ends). Roman numbers before positions name the chains, in order. Side-chain parts run from the residue outwards. [ ]: non-standard residue; d: D form. The star is where a group is joined. DOTA = O=C(O)CN1CCN(CC(=O)O)CCN(CC(=O)*)CCN(CC(=O)O)CC1; dTyr(3-I) = N[C@H](Cc1ccc(O)c(I)c1)C(=O)O; 2Nal = N[C@@H](Cc1ccc2ccccc2c1)C(=O)O; dNMeOrn = CN[C@H](CCCN)C(=O)O; HYNIC = NNc1ccc(C(=O)*)cn1; 4Amb = NCc1ccc(C(=O)O)cc1; Mercaptoacetyl = O=C(CS)*; 4Abz = Nc1ccc(C(=O)O)cc1; dDap = NC[C@@H](N)C(=O)O

What was measured:
[1] = tested on: hCXCR4 expressing Chem-1 cells; assay: Dual tracer internalization studies with [^125I]FC-131 as internal reference; format: cell-based, human; conditions: for internalization in % of total activity / Internalization (% of reference): 90 min; for Internalization (% of reference): normalized to specific internalization of [^125I]FC-131, Chem-1 cells; for internalization area under the curve (AUC): internalization kinetics, Fig. 1
Description: Dual tracer internalization studies using [^125I]FC-131 as internal reference were conducted in hCXCR4 expressing Chem-1 cells in analogy to a previously established protocol. A detailed assay protocol is provided in the supplementary material section.
On the day prior to the experiment, Chem-1 cells were seeded in 24-well-plates at a density of app. 1·10^5 cells per well. On the day of the experiment, the culture medium was removed and the cells were washed once with 250 µL of unsupplemented medium before being left to equilibrate in 200 µL of assay medium (DMEM/F-12 containing 5% BSA) at 37°C for a minimum of 15 min before the experiment. Cells were then coincubated with the respective ^99mTc-labeled compound of interest (0.2 nM) and [^125I]FC-131 (0.2 nM) in the absence (total binding) or presence (non-specific binding) of 100 µM AMD3100 for different time points up to 120 min at 37°C (n=3 wells, respectively, per time point). Incubation was terminated by placing the plate on an ice pack for app. 1 min and by subsequent removal of the incubation medium. Cells were thoroughly rinsed with 250 µL of HBSS. After washing twice with 250 µL of ice cold acid wash buffer (0.02 M NaOAc buffered with AcOH to pH = 5), cells were lysed with 250 µL of 1 N NaOH. The lysate was tranferred to vials and combined with 250 µL of HBSS used for rinsing the wells. Quantification of the amount of free, acid-releasable and internalized ^99mTc- and ^125I-activity was performed using dual isotope protocol on a WIZARD^2® 2480 automatic γ-Counter (Perkin Elmer, Waltham MA, USA).
All data were corrected for non-specific internalization in the presence of […] AMD3100 and were then normalized to the specific internalization observed of the standard radioligand [^125I]FC-131.

[2] = tested on: Jurkat xenograft bearing CB17/SCID mice; assay: Biodistribution in Jurkat xenograft-bearing mice, 1 h p.i.; format: in vivo; conditions: Jurkat xenograft, n = 5, mean ± SD
Description: (§1) Female CB17/SCID mice bearing subcutaneous Jurkat human T cell lymphoma xenografts (for more detailed information, see supplemental material) were injected intravenously with the respective ^99mTc-labeled tracer (5–20 MBq, 0.1–0.2 nmol/mouse) under isofluorane anesthesia and were sacrificed at 1 h post-injection (p.i.). The organs of interest were dissected, and the activity concentration in weighed tissue samples was quantified using a WIZARD^2® 2480 automatic γ-Counter from Perkin Elmer (Waltham MA, USA). Biodistribution data are given in %iD/g and represent means ± SD (groups of n = 4–5 animals). Statistical analysis (t-test) was performed using GraphPad Prism.
(§2) To establish tumor xenografts, Jurkat cells (2 – 3x10^7 cells) were suspended in a mixture of RPMI 1640 medium and Matrigel (1/1; v/v) (BD Biosciences, Heidelberg, Germany), and injected subcutaneously into the right shoulder of 6–10 weeks old CB17-SCID mice from either Charles River GmbH (Sulzfeld, Germany) or the in-house mouse breeding facility. As soon as tumors had grown to a diameter of 5–8 mm (4 – 10 weeks after inoculation), mice were used for the experiments.

[3] = as above; format: in vivo; conditions: female, CB17/SCID, mouse, iv, total radioactivity, n = 5, mean ± SD
Description: as §1, §2

[4] = biological target: human CXCR4 (hCXCR4) (Homo sapiens, UniProt P61073); assay: Competitive binding to hCXCR4 (IC50), Jurkat cells, [^125I]FC-131 as radioligand; conditions: [^125I]FC-131 radioligand
human CXCR4 (hCXCR4), sequence (P61073 whole entry): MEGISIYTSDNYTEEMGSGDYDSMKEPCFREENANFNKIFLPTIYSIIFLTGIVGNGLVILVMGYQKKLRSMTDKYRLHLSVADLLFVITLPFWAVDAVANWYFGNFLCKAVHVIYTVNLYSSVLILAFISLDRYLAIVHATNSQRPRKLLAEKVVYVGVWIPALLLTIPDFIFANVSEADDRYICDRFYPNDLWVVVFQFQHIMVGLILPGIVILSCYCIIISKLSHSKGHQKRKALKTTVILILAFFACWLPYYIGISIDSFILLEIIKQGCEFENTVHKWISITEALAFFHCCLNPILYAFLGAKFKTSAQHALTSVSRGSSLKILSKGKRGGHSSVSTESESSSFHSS

[5] = tested on: mCXCR4; conditions: Eµ-myc 1080 mouse lymphoma cells; cited from earlier work
[6] = in vivo; cited from earlier work
[7] = Lipophilicity (logD), shake-flask n-octanol/PBS pH 7.4; format: physicochemical
Description: The lipophilicity (logD, partition coefficient between n-octanol and PBS, pH 7.4) of all ^99mTc-labeled compounds in this study was determined using a modified shake-flask method as described.

## C[C@@H](NC(=O)[C@@H](CCCNC(=N)N)NC(=O)[C@@H](CN)NC(=O)[C@@H](CO)NC(=O)[C@@H](CO)NC(=O)[C@@H](CO)NC(=O)CS)C(=O)Nc1ccc(C(=O)NCCC[C@@H]2C(=O)N[C@@H](CCCNC(=N)N)C(=O)N[C@@H](Cc3ccc4ccccc4c3)C(=O)NCC(=O)N[C@H](Cc3ccc(O)cc3)C(=O)N2C)cc1 [[^99mTc]Tc-mas3-L6-CPCR4, metal not drawn] (I: Mercaptoacetyl-[dS][dS][dS][dDap][dR][dA][4Abz] / II: cyclo([dY][dNMeOrn]R[2Nal]G); amide I:C-II:2)
[1]
  internalization in % of total activity: 80%
  Internalization (% of reference): 525 (90 min) % of reference
  internalization area under the curve (AUC): 2430
[2]
  Biodistribution Tumor (tumor accumulation): 6.6 ± 1.0 %iD/g

## C[C@@H](NC(=O)[C@@H](CCCNC(=N)N)NC(=O)[C@@H](CN)NC(=O)c1ccc(NN)nc1)C(=O)Nc1ccc(C(=O)NCCC[C@@H]2C(=O)N[C@@H](CCCNC(=N)N)C(=O)N[C@@H](Cc3ccc4ccccc4c3)C(=O)NCC(=O)N[C@H](Cc3ccc(O)cc3)C(=O)N2C)cc1 [[^99mTc]Tc-HYNIC-L6-CPCR4, metal not drawn] (cyclo([dY][dNMeOrn]([4Abz-dA-dR-dDap-HYNIC])R[2Nal]G))
[1]
  internalization in % of total activity: 77%
  Internalization (% of reference): 503 (90 min) % of reference
  internalization area under the curve (AUC): 2370
[3]; blood, read-out: Biodistribution Blood
  tissue uptake at 1 h: 1.6 ± 0.6 %ID/g
[3]; femur, read-out: Biodistribution Femur
  tissue uptake at 1 h: 0.8 ± 0.4 %ID/g
[3]; heart, read-out: Biodistribution Heart
  tissue uptake at 1 h: 0.8 ± 0.3 %ID/g
[3]; intestines, read-out: Biodistribution Intestines
  tissue uptake at 1 h: 0.6 ± 0.1 %ID/g
[3]; kidneys, read-out: Biodistribution Kidneys
  tissue uptake at 1 h: 29.5 ± 4.4 %ID/g
[3]; liver, read-out: Biodistribution Liver
  tissue uptake at 1 h: 2.6 ± 0.2 %ID/g
[3]; lung, read-out: Biodistribution Lung
  tissue uptake at 1 h: 1.9 ± 0.4 %ID/g
[3]; muscle, read-out: Biodistribution Muscle
  tissue uptake at 1 h: 1.5 ± 1.1 %ID/g
[3]; pancreas, read-out: Biodistribution Pancreas
  tissue uptake at 1 h: 0.4 ± 0.3 %ID/g
[3]; spleen, read-out: Biodistribution Spleen
  tissue uptake at 1 h: 2.4 ± 1.1 %ID/g
[3]; stomach, read-out: Biodistribution Stomach
  tissue uptake at 1 h: 2 ± 0.7 %ID/g
[2]
  Biodistribution Tumor (tumor accumulation): 8.0 ± 2.2 %iD/g

## C[C@@H](NC(=O)[C@@H](CCCNC(=N)N)NC(=O)[C@@H](CN)NC(=O)[C@@H](CO)NC(=O)[C@@H](CO)NC(=O)[C@@H](CO)NC(=O)CS)C(=O)Nc1ccc(C(=O)NCCC[C@@H]2C(=O)N[C@@H](CCCNC(=N)N)C(=O)N[C@@H](Cc3ccc4ccccc4c3)C(=O)NCC(=O)N[C@H](Cc3ccc(O)cc3)C(=O)N2C)cc1 [mas3-L6-CPCR4, mas3-dap-r-a-Abz-CPCR4] (I: Mercaptoacetyl-[dS][dS][dS][dDap][dR][dA][4Abz] / II: cyclo([dY][dNMeOrn]R[2Nal]G); amide I:C-II:2)
[4]
  IC50: 5 ± 1.3 nM

## CN1C(=O)[C@@H](Cc2ccc(O)c(I)c2)NC(=O)CNC(=O)[C@H](Cc2ccc3ccccc3c2)NC(=O)[C@H](CCCNC(=N)N)NC(=O)[C@H]1CCCNC(=O)c1ccc(CNC(=O)CN2CCN(CC(=O)O)CCN(CC(=O)O)CCN(CC(=O)O)CC2)cc1 [^natLu-PentixaTher, metal not drawn] (cyclo([dTyr(3-I)][dNMeOrn]([4Amb-DOTA])R[2Nal]G); ring closure inferred)
[5]
  IC50: 567 ± 62 nM

## CN1C(=O)[C@@H](Cc2ccc(O)cc2)NC(=O)CNC(=O)[C@H](Cc2ccc3ccccc3c2)NC(=O)[C@H](CCCNC(=N)N)NC(=O)[C@H]1CCCNC(=O)c1ccc(NN)nc1 [[^99mTc]Tc-HYNIC-CPCR4, cyclo(D-Tyr-N-Me-D-Orn([^99mTc]Tc-HYNIC)-Arg-2-Nal-G), metal not drawn] (cyclo([2Nal]G[dY][dNMeOrn](HYNIC)R))
[6]
  effective dose per unit of administered activity: 3.92E − 03 mSv/MBq
[7]
  Lipophilicity (logD): − 1.84
